Test system: HSV-1 K26-GFP
Experiment: microbe, parasite or virus in culture
Format: cell-based, HSV-1 (F strain)
Details: Human alphaherpesvirus 1, Vero, 24 h; for inhibition at 20 µM: read-out: percentage inhibition at the highest concentration tested (20 µM)

| SMILES | EC50 [µM] | inhibition at 20 µM [%] |
| --- | --- | --- |
| O=C1c2c(O)c(=O)ccn2N(Cc2ccc(-c3ccc(OC(F)(F)F)cc3)cc2)[C@@H]2COCCN12 [Compound 32, (R)-7-hydroxy-12-((4'-(trifluoromethoxy)-[1,1'-biphenyl]-4-yl)methyl)-3,4,12,12a-tetrahydro-1H-[1,4]oxazino[3,4-c]pyrido[2,1-f][1,2,4]triazine-6,8-dione] | 8.9 ± 1 | – |
| CC(C)c1ccc(O)c(O)c(=O)c1 [β-thujaplicinol, reference compound] | 3.9 ± 0.9 | – |
| O=C1c2c(O)c(=O)ccn2N(Cc2ccc(-c3ccco3)cc2)[C@@H]2COCCN12 [Compound 18, (R)-12-(4-(furan-2-yl)benzyl)-7-hydroxy-3,4,12,12a-tetrahydro-1H-[1,4]oxazino[3,4-c]pyrido[2,1-f][1,2,4]triazine-6,8-dione] | > 20 | 48.5 |
| O=C1c2c(O)c(=O)ccn2N(Cc2ccc(-c3ccccc3)cc2)[C@@H]2COCCN12 [Compound 19, (R)-12-([1,1'-biphenyl]-4-yimethyl)-7-hydroxy-3,4,12,12a-tetrahydro-1H-[1,4]oxazino[3,4-c]pyrido[2,1-f][1,2,4]triazine-6,8-dione] | 2.8 ± 1.1 | – |
| COC(=O)OCOc1c2n(ccc1=O)N([C@@H]1c3ccccc3SCc3c1ccc(F)c3F)[C@@H]1COCCN1C2=O [Baloxavir marboxil, reference compound] | > 20 | 13.7 |
| O=C1c2c(O)c(=O)ccn2N([C@@H]2c3ccccc3SCc3c2ccc(F)c3F)[C@@H]2COCCN12 [Baloxavir acid, reference compound] | > 20 | 40.7 |
| Nc1nc2c(ncn2COCCO)c(=O)[nH]1 [Acyclovir (ACV), Acyclovir, reference compound] | 0.68 ± 0.11 | – |
| O=C1c2c(O)c(=O)ccn2N(Cc2ccc(Cl)c(F)c2)[C@@H]2COCCN12 [Compound 10, (R)-12-(4-chloro-3-fluorobenzyl)-7-hydroxy-3,4,12,12a-tetrahydro-1H-[1,4]oxazino[3,4-c]pyrido[2,1-f][1,2,4]triazine-6,8-dione] | 10.3 ± 0.9 | – |
| O=C1c2c(O)c(=O)ccn2N(Cc2ccc(-c3ccc(F)cc3)cc2)[C@@H]2COCCN12 [Compound 29, (R)-12-((4'-fluoro-[1,1'-biphenyl]-4-yl)methyl)-7-hydroxy-3,4,12,12a-tefrahydro-1H-[1,4]oxazino[3,4-c]pyrido[2,1-f][1,2,4]triazine-6,8-dione] | 4 ± 1.3 | – |
| O=C1c2c(O)c(=O)ccn2N(Cc2ccc(C(F)(F)F)cc2)[C@@H]2COCCN12 [Compound 7, (R)-7-hydroxy-12-(4-(trifluoromethyl)benzyl)-3,4,12,12a-tetrahydro-1H-[1,4]oxazino[3,4-c]pyrido[2,1-f][1,2,4]triazine-6,8-dione] | 3.4 ± 2.7 | – |
